# Assays:
# [1] = test system: anti-apoptotic protein Bcl-2; test: Western Blotting of Bcl-2 in K562 cells; format: cell-based, human; settings: leukemia cells K562, 10 μmol/L, 24 h
# Experimental: (§1) The STAT3 and ERK signal pathways can regulate cyclins and apoptosis genes, and in order to verify the effects of […] and mogrol, the expression status of downstream genes of STAT3 and ERK was detected, wherein the influences of the three mogrosides and analogs thereof, i.e. Mogrol I E1, Mogrol II A2 and mogrol, on Bcl-2 and P21 proteins in the histiocytic lymphoma U937 cells, human melanoma A875 cells and leukemia cells K562 were determined, respectively.
# (§2) The regulation of Bcl-2 and P21 proteins by mogrosides and analog thereof to the was detected by Western Blotting, specifically: histiocytic lymphoma U937 cells, human melanoma A875 cells and leukemia cells K562 (1×10^6 cells/well) were inoculated into a 6-well culture plate overnight, and 0 and 10 μmol/L of the mogrosides and analogs thereof were added respectively, and kept cultured for 24 h. […]
# (§3) The protein concentration was measured with bovine serum albumin (BSA) as the standard. 50 μg of the total proteins were separated by polyacrylamide gel electrophoresis with 12% SDS, and electrophoretically transferred to a PVDF membrane (polyvinylidene fluoride membrane), and blocked for 1 h by 5% of skim milk (containing 0.1% of Tween 20), and then antibodies P21, Bcl-2 and β-actin were added, wherein the primary antibody was incubated at 4° C. overnight (β-actin was used as reference loading amount); the membrane was washed for 3 times with TBS-T, 5 min each time; secondary antibody marked by horseradish peroxidase (HRP) was added for incubation at room temperature for 1 h, the membrane was washed with rinse solution (TBS-T) for 3 times, 10 min each time, and then ECL was added for incubation in dark for 5 min, and subsequently, a fluorescence imaging analyzer was used for image development and scanning analysis.
# [2] = test system: human melanoma A875 cells; test: Cell apoptosis, Annexin V-FITC/PI, flow cytometer; format: cell-based; settings: for cell apoptosis: 10 μmol/L, 24 h
# Experimental: Mogroside I E1, Mogroside II A2 and mogrol) for 24 h, cells were collected and washed twice with 200 μl of cold PBS, and then the cells were collected again; 100 μl of binding buffer was added for re-suspending the cells, and after the addition of 2 μl of Annexin V-FITC and well mixing, the resulting mixture was placed in dark at room temperature for 10 min, and then 5 μl of propidium iodide (PI) was added and then well mixed; the mixture was placed in dark at room temperature for 10 min, and detected by flow cytometer, and the results are shown in FIGS. 13-15.
# [3] = test system: cycle regulatory protein P21; test: Western Blotting of P21 in U937 cells; format: cell-based; settings: 10 μmol/L, 24 h
# Experimental: as §1, §2, §3
# [4] = test system: anti-apoptotic protein Bcl-2; test: Western Blotting of Bcl-2 in U937 cells; format: cell-based; settings: 10 μmol/L, 24 h
# Experimental: as §1, §2, §3
# [5] = test system: anti-apoptotic protein Bcl-2; test: Western Blotting of Bcl-2 in A875 cells; format: cell-based; settings: human melanoma A875 cells, 10 μmol/L, 24 h
# Experimental: as §1, §2, §3
# leukemia cells K562 [6] = test: Cell morphology, Hoechst 33258 staining, fluorescence microscope; format: cell-based, human; settings: leukemia cells K562, 10, 100 and 250 μmol/L, 24-hour culture
# Experimental: (§4) Lymphoma U937 cells, human melanoma A875 cells and leukemia cells K562 in logarithmic growth phase were selected, and the concentrations of the cells were adjusted to 1×10^4 cells/mL, and the cells were transferred to a 6-well plate for culture, and after the 24-hour culture, drugs were added to achieve final concentrations of 0, 10, 100 and 250 μmol/L, wherein only whole medium was added to the negative control groups, while Mogroside II A2 was added to the positive control groups, after 24-hour culture, waste solution was removed, and fixing solution was added to each well for fixing for 25 min, and then the resulting mixture was washed twice, 3 min each time, and then Hoechst 33258 staining solution was added for staining in dark at room temperature for 30 min, and the cell morphology variation was observed using a fluorescence microscope.
# lymphoma U937 cells [7] = test: as above; format: cell-based; settings: lymphoma U937 cells, 10, 100 and 250 μmol/L, 24-hour culture
# Experimental: as §4
# [8] = test system: human melanoma A875 cells; test: as above; format: cell-based; settings: A875 melanoma cells, 10, 100 and 250 μmol/L, 24-hour culture
# Experimental: as §4
# [9] = test system: histiocytic lymphoma U937 cells; test: Cell cycle distribution, PI staining, flow cytometer; format: cell-based; settings: 24 h; for proportion of cells in G0/G1 phase with the rise of the concentration: U937 cells, 0, 1, 10, 150 and 250 μmol/L; for cell cycle distribution (proportion of cells of G0/G1 phase): U937 cells, 10 μmol/L
# Source text: (§5) The influences of Mogroside I E1, Mogroside II A2 and mogrol on the cell cycle distribution of the histiocytic lymphoma U937 cells, the human melanoma A875 cells and the leukemia cells K562.
# (§6) The cell cycle arrest achieved by drugs is an important approach to the inhibition of cancer cell proliferation.
# [10] = test system: human melanoma A875 cells; test: as above; format: cell-based; settings: human melanoma A875 cells, 10 μmol/L, 24 h
# Source text: as §5, §6
# leukemia cells K562 [11] = test: as above; format: cell-based, human; settings: leukemia cells K562, 10 μmol/L, 24 h
# Source text: as §5, §6
# [12] = test system: cycle regulatory protein P21; test: Western Blotting of P21 in A875 cells; format: cell-based; settings: human melanoma A875 cells, 10 μmol/L, 24 h
# Experimental: as §1, §2, §3
# [13] = test system: cycle regulatory protein P21; test: Western Blotting of P21 in K562 cells; format: cell-based, human; settings: leukemia cells K562, 10 μmol/L, 24 h
# Experimental: as §1, §2, §3
# lymphoma U937 cells [14] = test: Cell apoptosis, Annexin V-FITC/PI, flow cytometer; format: cell-based; settings: 10 μmol/L, 24 h
# Experimental: (§7) Lymphoma U937 cells, human melanoma A875 cells and leukemia cells K562 in logarithmic growth phase were selected, and after the respective culture with 0 and 10 μmol/L of the mogrosides and analogs thereof (i.e. Mogroside I E1, Mogroside II A2 and mogrol) for 24 h, cells were collected and washed twice with 200 μl of cold PBS, and then the cells were collected again; 100 μl of binding buffer was added for re-suspending the cells, and after the addition of 2 μl of Annexin V-FITC and well mixing, the resulting mixture was placed in dark at room temperature for 10 min, and then 5 μl of propidium iodide (PI) was added and then well mixed; the mixture was placed in dark at room temperature for 10 min, and detected by flow cytometer, and the results are shown in FIGS. 13-15.
# leukemia cells K562 [15] = test: Cell apoptosis, Annexin V-FITC/PI, flow cytometer; format: cell-based, human; settings: leukemia cells K562, 10 μmol/L, 24 h
# Experimental: as §7
# [16] = test system: lymphoma U937 cells, human melanoma A875 cells and leukemia cells K562; test: Tests of examples 3 to 8 taken together; format: cell-based; settings: Western Blotting, cell cycle, apoptosis, Hoechst, MTT
# [17] = test system: prostate cancer cells, renal carcinoma cells, head and neck squamous cell carcinoma cells, lung cancer cells, ovarian cancer cells, breast cancer cells …; test: Tests of examples 3 to 8 on further cancer cells; format: cell-based; settings: pancreatic, liver and colon cancer cells
Compound,expression of anti-apoptotic protein Bcl-2 [1],cell apoptosis [2],expression of cycle regulatory protein P21 [3],expression of anti-apoptotic protein Bcl-2 [4],expression of anti-apoptotic protein Bcl-2 [5],cell morphology variation (Hoechst 33258) (leukemia cells K562 [6]),cell morphology variation (Hoechst 33258) (lymphoma U937 cells [7]),cell morphology variation (Hoechst 33258) [8],proportion of cells in G0/G1 phase with the rise of the concentration [9],cell cycle distribution (proportion of cells of G0/G1 phase) [9],cell cycle distribution (proportion of cells in the G0/G1 phase) [10],cell cycle distribution (cell cycle arrest) (leukemia cells K562 [11]),expression of cycle regulatory protein P21 [12],expression of cycle regulatory protein P21 [13],cell apoptosis (lymphoma U937 cells [14]),cell apoptosis (leukemia cells K562 [15]),amount for cell apoptosis with the rise of the concentration ([2]; different concentrations (FIG. 16)),results of the tests of examples 3 to 8 [16],results of the tests of examples 3 to 8 on further cancer cells [17]
C[C@H](CC[C@@H](O)C(C)(C)O)[C@H]1CC[C@@]2(C)[C@H]3CC=C4[C@@H](CC[C@H](O[C@@H]5O[C@H](CO)[C@@H](O)[C@H](O)[C@H]5O)C4(C)C)[C@]3(C)C(O)C[C@]12C (some centres unmarked) [Mogroside I E1],significantly down-regulated,induce the apoptosis,significantly up-regulated,significantly down-regulated,significantly down-regulated,identical to the results of Mogroside II A2,identical to the results of Mogroside II A2,identical to the results of Mogroside II A2,gradually increased,G0/G1 arrest,G0/G1 arrest,arrested,significantly up-regulated,significantly up-regulated,induce the apoptosis,induce the apoptosis,–,–,–
C[C@H](CC[C@@H](O)C(C)(C)O)[C@H]1CC[C@@]2(C)[C@H]3CC=C4[C@@H](CC[C@H](O[C@@H]5O[C@H](CO[C@@H]6O[C@H](CO)[C@@H](O)[C@H](O)[C@H]6O)[C@@H](O)[C@H](O)[C@H]5O)C4(C)C)[C@]3(C)[C@H](O)C[C@]12C [Mogroside II A2],significantly down-regulated,induce the apoptosis,significantly up-regulated,significantly down-regulated,significantly down-regulated,identical to the results of the human melanoma A875 cells,identical to the results of the human melanoma A875 cells,typical variation of cell apoptosis,gradually increased,G0/G1 arrest,G0/G1 arrest,arrested,significantly up-regulated,significantly up-regulated,induce the apoptosis,induce the apoptosis,the amount for cell apoptosis increases,–,–
C[C@H](CC[C@@H](O[C@@H]1O[C@H](CO[C@@H]2O[C@H](CO)[C@@H](O)[C@H](O)[C@H]2O)[C@@H](O)[C@H](O)[C@H]1O[C@@H]1O[C@H](CO)[C@@H](O)[C@H](O)[C@H]1O)C(C)(C)O)[C@H]1CC[C@@]2(C)[C@H]3CC=C4[C@H](CC[C@H](O[C@@H]5O[C@H](CO[C@@H]6O[C@H](CO)[C@@H](O)[C@H](O)[C@H]6O)[C@@H](O)[C@H](O)[C@H]5O[C@@H]5O[C@H](CO)[C@@H](O)[C@H](O)[C@H]5O)C4(C)C)[C@]3(C)[C@H](O)C[C@]12C [Mogroside VI],–,–,–,–,–,–,–,–,–,–,–,–,–,–,–,–,–,identical to those of Mogrol I E1 and Mogrol II A2,identical to the results of the lymphoma U937 cells
C[C@H](CC[C@@H](O[C@@H]1O[C@H](CO[C@@H]2O[C@H](CO)[C@@H](O)[C@H](O)[C@H]2O)[C@@H](O)[C@H](O)[C@H]1O[C@@H]1O[C@H](CO)[C@@H](O)[C@H](O)[C@H]1O)C(C)(C)O)[C@H]1CC[C@@]2(C)[C@@H]3CC=C4[C@@H](CC[C@H](O[C@@H]5O[C@H](CO[C@@H]6O[C@H](CO)[C@@H](O)[C@H](O)[C@H]6O)[C@@H](O)[C@H](O)[C@H]5O)C4(C)C)[C@]3(C)[C@H](O)C[C@]12C [Mogroside V],–,–,–,–,–,–,–,–,–,–,–,–,–,–,–,–,–,identical to those of Mogrol I E1 and Mogrol II A2,identical to the results of the lymphoma U937 cells
Mogrol III,–,–,–,–,–,–,–,–,–,–,–,–,–,–,–,–,–,identical to those of Mogrol I E1 and Mogrol II A2,identical to the results of the lymphoma U937 cells
Mogrol IV,–,–,–,–,–,–,–,–,–,–,–,–,–,–,–,–,–,identical to those of Mogrol I E1 and Mogrol II A2,identical to the results of the lymphoma U937 cells
